{
  "source": "patent US10106571B2",
  "about": "“HCV polymerase inhibitors” (priority 2013, dated 2018)",
  "assay_type_in_all_cases": "cell-based",
  "key": {"[1]": {"test_system": "HCV GT6a", "test": "HCV GT6a chimeric replicon", "conditions": "Hepatitis C virus, read-out: EC50 HCV GT6a*", "description": "(§1) The compound of Example 2 was further evaluated to assess the antiviral activity against genotypes 1-6 of HCV, both wild type and a number of clinically relevant mutant strains. The result of the evaluation together with the average EC50 of the genotypes and the corresponding values for sofosbuvir are summarised in Tables 2 and 3."}, "[2]": {"test_system": "HCV GT1b (transient)", "test": "HCV GT1b (transient) replicon", "conditions": "Hepatitis C virus, read-out: EC50 HCV GT1b (transient)", "description": "as §1"}, "[3]": {"test_system": "HCV mutant strains", "test": "Average over HCV mutant assays (Table 3)", "conditions": "for EC50: Hepatitis C virus, read-out: AVG EC50; for potency increase vs sofosbuvir: mutant assays, from AVG EC50", "description": "as §1"}, "[4]": {"test_system": "HCV GT1b L159F/L320F", "test": "HCV GT1b L159F/L320F mutant replicon", "conditions": "for EC50: Hepatitis C virus, GT1B, read-out: EC50 HCV GT1b L159F/L320F; for FC vs WT, HCV GT1b L159F/L320F: fold change of EC50 vs wild type", "description": "as §1"}, "[5]": {"test_system": "HCV GT2a replicon", "test": "HCV GT2a replicon", "conditions": "Hepatitis C virus, read-out: EC50 HCV GT2a replicon", "description": "as §1"}, "[6]": {"test_system": "HCV GT4a", "test": "HCV GT4a chimeric replicon", "conditions": "Hepatitis C virus, read-out: EC50 HCV GT4a*", "description": "as §1"}, "[7]": {"test_system": "HCV GT1b S282T", "test": "HCV GT1b S282T mutant replicon", "conditions": "for EC50: Hepatitis C virus, GT1B, read-out: EC50 HCV GT1b S282T; for FC vs WT, HCV GT1b S282T: fold change of EC50 vs wild type", "description": "as §1"}, "[8]": {"test_system": "HCV type 1b replicon (Huh-7 luc/neo, Huh-Luc)", "test": "Replicon assay, Huh-Luc cells with HCV type 1b replicon (stable), luciferase readout", "description": "The compounds of formula I may be examined for activity in the inhibition of HCV RNA replication in a cellular assay aimed at identifying compounds that inhibit a HCV functional cellular replicating cell line, also known as HCV replicons. A suitable cellular assay is based on a bicistronic expression construct, as described by Lohmann et al. (1999), Science vol. 285 pp. 110-113 with modifications described by Krieger et al. (2001), Journal of Virology 75: 4614-4624, in a multi-target screening strategy.\nThe assay utilizes the stably transfected cell line Huh-7 luc/neo (hereafter referred to as Huh-Luc). This cell line harbors an RNA encoding a bicistronic expression construct comprising the wild type NS3-NS5B regions of HCV type 1b translated from an Internal Ribosome Entry Site (IRES) from encephalomyocarditis virus (EMCV), preceded by a reporter portion (FfL-luciferase), and a selectable marker portion (neo^R, neomycine phosphotransferase). The construct is bordered by 5′ and 3′ NTRs (non-translated regions) from HCV type 1b. Continued culture of the replicon cells in the presence of G418 (neo^R) is dependent on the replication of the HCV RNA. The stably transfected replicon cells that express HCV RNA, which replicates autonomously and to high levels, encoding inter alia luciferase, are used for screening the antiviral compounds.\nThe replicon cells are plated in 384 well plates in the presence of the test and control compounds which are added in various concentrations. Following an incubation of three days, HCV replication is measured by assaying luciferase activity (using standard luciferase assay substrates and reagents and a Perkin Elmer ViewLux™ ultraHTS microplate imager). Replicon cells in the control cultures have high luciferase expression in the absence of any inhibitor. The inhibitory activity of a compound on luciferase activity is monitored on the Huh-Luc cells, enabling a dose-response curve for each test compound. EC50 values are then calculated, which value represents the amount of the compound required to decrease the level of detected luciferase activity by 50%, or more specifically, the ability of the genetically linked HCV replicon RNA to replicate."}, "[9]": {"test_system": "HCV GT1a", "test": "HCV GT1a chimeric replicon", "conditions": "Hepatitis C virus, read-out: EC50 HCV GT1a*", "description": "as §1"}, "[10]": {"test_system": "HCV GT5a", "test": "HCV GT5a chimeric replicon", "conditions": "Hepatitis C virus, read-out: EC50 HCV GT5a*", "description": "as §1"}, "[11]": {"test_system": "HCV GT1a S282T", "test": "HCV GT1a S282T chimeric mutant replicon", "conditions": "for EC50: Hepatitis C virus, GT1A, read-out: EC50 HCV GT1a* S282T; for FC vs WT, HCV GT1a* S282T: fold change of EC50 vs wild type", "description": "as §1"}, "[12]": {"test_system": "HCV GT3a S282T", "test": "Genotype 3a transient replicon bearing the S282T mutation", "conditions": "for EC50: Hepatitis C virus; for FC vs WT, HCV GT3a* S282T: fold change of EC50 vs wild type", "protocol": "(§2) The antiviral activity of commercially available sofosbuvir and the compound of Example 2 were compared in a genotype 3a transient replicon assay described in Kylefjord et al., J Virol. Methods 2014 195:156-63.\n(§3) Similarly, the L159F/L320F double mutant generated by exposure to the nucleoside mericitabine and conferring cross resistance to sofosbuvir (Tong et al 2013 J. Infect. Dis., 209 (5), 668-75) was prepared in a genotype 3a transient replicon as described above in Kylefjord et al. ibid.\nas §1"}, "[13]": {"test_system": "HCV GT3a", "test": "Genotype 3a transient replicon assay (Kylefjord et al.)", "conditions": "Hepatitis C virus", "description": "as §2, §1"}, "[14]": {"test_system": "HCV GT2a virus", "test": "HCV GT2a virus", "conditions": "Hepatitis C virus, wild type, geometric mean", "description": "as §1"}, "[15]": {"test_system": "HCV GT3a L159F/L320F", "test": "Genotype 3a transient replicon, L159F/L320F double mutant", "conditions": "for EC50: Hepatitis C virus; for FC vs WT, HCV GT3a* L159F/L320F: fold change of EC50 vs wild type", "protocol": "as §3, §1"}, "[16]": {"test_system": "genotypes 1-6 of HCV, wild type", "test": "Average over wild type HCV genotype assays (Table 2)", "conditions": "for EC50: Hepatitis C virus, arithmetic mean +/- SEM; for potency increase vs sofosbuvir: from AVG EC50", "description": "as §1"}, "[17]": {"conditions": "Hepatitis C virus, GT1B, Huh-7, wild type, geometric mean, read-out: EC50 HCV GT1b (stable)"}, "[18]": {"conditions": "GT3A, read-out: EC50 HCV GT3a* S282T"}, "[19]": {"conditions": "read-out: EC50, genotype 3a S282T"}, "[20]": {"conditions": "read-out: EC50 against genotype 3a"}, "[21]": {"conditions": "GT3A, read-out: EC50 HCV GT3a* L159F/L320F"}, "[22]": {"conditions": "read-out: EC50, genotype 3a L159F/L320F double mutant"}},
  "note": "Read-outs that look alike come from different tables or passages of the source.",
  "data": [
    {"compound": "CC(C)OC(=O)[C@H](C)NP(=O)(OC[C@H]1O[C@@H](n2ccc(=O)[nH]c2=O)[C@@](F)(Cl)[C@@H]1O)Oc1ccccc1", "note": "(stereo partly drawn) [Example 2, (2S)-isopropyl 2-(((((2R,3R,4S,5R)-4-chloro-5-(2,4-dioxo-3,4-dihydropyrimidin-1(2H)-yl)-4-fluoro-3-hydroxytetrahydrofuran-2-yl)methoxy)(phenoxy)phosphoryl)amino)propanoate]", "values": [
      {"measurement": "EC50", "setting": "[1]", "result": 58, "unit": "nM"},
      {"measurement": "EC50", "setting": "[2]", "result": 44, "unit": "nM"},
      {"measurement": "EC50", "setting": "[3]", "result": 171, "unit": "nM"},
      {"measurement": "potency increase vs sofosbuvir", "setting": "[3]", "result": 3.1},
      {"measurement": "EC50", "setting": "[4]", "result": 70, "unit": "nM"},
      {"measurement": "FC vs WT, HCV GT1b L159F/L320F", "setting": "[4]", "result": 1.6},
      {"measurement": "EC50", "setting": "[5]", "result": 23, "unit": "nM"},
      {"measurement": "EC50", "setting": "[6]", "result": 59, "unit": "nM"},
      {"measurement": "EC50", "setting": "[7]", "result": 298, "unit": "nM"},
      {"measurement": "FC vs WT, HCV GT1b S282T", "setting": "[7]", "result": 6.8},
      {"measurement": "EC50", "setting": "[8]; [17]", "result": 45, "unit": "nM"},
      {"measurement": "EC50", "setting": "[8]; Huh-Luc HCV 1b replicon, three days incubation, luciferase activity, read-out: EC50", "result": 55, "unit": "nM"},
      {"measurement": "EC50", "setting": "[9]", "result": 50, "unit": "nM"},
      {"measurement": "EC50", "setting": "[10]", "result": 44, "unit": "nM"},
      {"measurement": "EC50", "setting": "[11]", "result": 301, "unit": "nM"},
      {"measurement": "FC vs WT, HCV GT1a* S282T", "setting": "[11]", "result": 6.0},
      {"measurement": "EC50", "setting": "[12]; [18]", "result": 122, "unit": "nM"},
      {"measurement": "EC50", "setting": "[12]; [19]", "result": 130, "unit": "nM"},
      {"measurement": "FC vs WT, HCV GT3a* S282T", "setting": "[12]", "result": 2.7},
      {"measurement": "EC50", "setting": "[13]; GT3A, read-out: EC50 HCV GT3a*", "result": 46, "unit": "nM"},
      {"measurement": "EC50", "setting": "[13]; [20]", "result": 72, "unit": "nM"},
      {"measurement": "EC50", "setting": "[14]", "result": 17, "unit": "nM"},
      {"measurement": "EC50", "setting": "[15]; [21]", "result": 62, "unit": "nM"},
      {"measurement": "EC50", "setting": "[15]; [22]", "result": 62, "unit": "nM"},
      {"measurement": "FC vs WT, HCV GT3a* L159F/L320F", "setting": "[15]", "result": 1.3},
      {"measurement": "EC50", "setting": "[16]", "result": 43, "unit": "nM"},
      {"measurement": "potency increase vs sofosbuvir", "setting": "[16]", "result": 2.7}
    ]},
    {"compound": "CC(C)OC(=O)[C@H](C)N[P@](=O)(OC[C@H]1O[C@@H](n2ccc(=O)[nH]c2=O)[C@](C)(F)[C@@H]1O)Oc1ccccc1", "note": "[sofosbuvir, reference compound]", "values": [
      {"measurement": "EC50", "setting": "[1]", "result": 179, "unit": "nM"},
      {"measurement": "EC50", "setting": "[2]", "result": 81, "unit": "nM"},
      {"measurement": "EC50", "setting": "[3]", "result": 532, "unit": "nM"},
      {"measurement": "potency increase vs sofosbuvir", "setting": "[3]", "result": 1.0},
      {"measurement": "EC50", "setting": "[4]", "result": 199, "unit": "nM"},
      {"measurement": "FC vs WT, HCV GT1b L159F/L320F", "setting": "[4]", "result": 2.5},
      {"measurement": "EC50", "setting": "[5]", "result": 48, "unit": "nM"},
      {"measurement": "EC50", "setting": "[6]", "result": 218, "unit": "nM"},
      {"measurement": "EC50", "setting": "[7]", "result": 741, "unit": "nM"},
      {"measurement": "FC vs WT, HCV GT1b S282T", "setting": "[7]", "result": 8.8},
      {"measurement": "EC50", "setting": "[8]; [17]", "result": 98, "unit": "nM"},
      {"measurement": "EC50", "setting": "[9]", "result": 131, "unit": "nM"},
      {"measurement": "EC50", "setting": "[10]", "result": 114, "unit": "nM"},
      {"measurement": "EC50", "setting": "[11]", "result": 1010, "unit": "nM"},
      {"measurement": "FC vs WT, HCV GT1a* S282T", "setting": "[11]", "result": 7.7},
      {"measurement": "EC50", "setting": "[12]; [18]", "result": 521, "unit": "nM"},
      {"measurement": "EC50", "setting": "[12]; [19]", "result": 480, "unit": "nM"},
      {"measurement": "FC vs WT, HCV GT3a* S282T", "setting": "[12]", "result": 4.0},
      {"measurement": "EC50", "setting": "[13]; GT3A, read-out: EC50 HCV GT3a*", "result": 129, "unit": "nM"},
      {"measurement": "EC50", "setting": "[13]; [20]", "result": 230, "unit": "nM"},
      {"measurement": "EC50", "setting": "[14]", "result": 54, "unit": "nM"},
      {"measurement": "EC50", "setting": "[15]; [21]", "result": 190, "unit": "nM"},
      {"measurement": "EC50", "setting": "[15]; [22]", "result": 190, "unit": "nM"},
      {"measurement": "FC vs WT, HCV GT3a* L159F/L320F", "setting": "[15]", "result": 1.5},
      {"measurement": "EC50", "setting": "[16]", "result": 117, "unit": "nM"},
      {"measurement": "potency increase vs sofosbuvir", "setting": "[16]", "result": 1.0}
    ]}
  ]
}
